# Measured values published in patent US20240245654A1, “ADJUNCTIVE D-CYCLOSERINE AUGMENTATION OF TRANSCRANIAL MAGNETIC STIMULATION (TMS) THERAPY FOR MAJOR DEPRESSIVE DISORDER” (MCGRX CORP., priority 2021, published 2024).
# Entries after “also recorded” stand apart in the source; their conditions may differ.
# Key:
# [1] = system: left primary motor cortex (iTBS synaptic plasticity); test: Repeated spaced iTBS of motor cortex, MEP and stimulus response curve, placebo-controlled crossover trial in healthy individuals (NCT05081986); assay type: in vivo, human; settings: n=20 healthy, vs placebo
# Procedure: Methods: This experiment was a pre-registered randomized, double-blind, placebo-controlled crossover trial (NCT05081986). Twenty healthy individuals were randomly assigned to one of two experimental arms of the crossover study: a) Placebo-D-cycloserine and b) D-cycloserine-placebo. In the placebo arm, participants received one oral dose of 100 mg microcrystalline cellulose one hour prior to iTBS. In the D-cycloserine 100 mg arm, participants received one oral dose of 100 mg D-cycloserine one hour before ITBS. Participants attended the laboratory on two occasions to complete both arms of the crossover design. Time of arrival was standardized across visits, and visits were separated by at least seven days.
# All TMS pulses were delivered using a neuro-navigated MagPro stimulator (X100 system, MagVenture, Denmark) with a biphasic Cool-B70 figure-eight coil. […] The peak-to-peak amplitude of MEPs were recorded from two surface electromyographic (EMG) electrodes placed on the right first dorsal interosseous muscle (FDI), with the ground electrode placed on the right styloid process. […]
# TMS was delivered to the left primary motor cortex to identify the area that, when stimulated, elicited the largest peak-to-peak FDI MEP amplitude (the hotspot). […] The resting motor threshold (RMT) was determined as the lowest stimulator output, which elicited peak-to-peak MEP amplitudes≥0.05 mV in 5/10 trials. […]
# [2] = system: motor cortex (iTBS synaptic plasticity); test: Motor cortex iTBS, MEP and stimulus response curve, placebo-controlled crossover study in Major Depressive Disorder (NCT03937596); assay type: in vivo, human
# [3] = system: treatment resistant major depressive disorder (MDD); test: 4-week double-blind placebo-controlled RCT of iTBS+DCS in treatment resistant MDD: depression, CGI, anxiety, wellbeing outcomes; assay type: in vivo, human; settings: for rate of clinical remission (MADRS≤10): iTBS+placebo 4.2%
# Procedure: Methods: In this preregistered (NCT03937596) single site 4-week randomized double-blind placebo-controlled trial, fifty participants with treatment resistant MDD were randomized 1:1 to ITBS+Placebo or iTBS+D-Cycloserine (100 mg). Participants were asked to take the adjunct or placebo at least 60 minutes prior to daily iTBS treatments for the first two weeks, and iTBS continued without an adjunct for weeks three and four. We utilized a MagPro X100 stimulator (MagVenture, Denmark) and a COOL-B70 coil. Targeting of the left DLPFC involved surface anatomy and the Beam F3 method^30. Although anatomical and functional neuroimaging was collected as part of the study protocol, targeting utilizing surface anatomy was chosen to increase generalizability to clinical settings where neuroimaging derived targets are not feasible. This target was registered to either the participant's anatomical MRI or to a template brain for those who could not complete neuroimaging (Visor2, ANT Neuro, the Netherlands). Resting motor threshold (rMT) was determined using electromyographic (EMG) electrodes placed over the first dorsal interosseous muscle, with threshold determined as the stimulus intensity required to elicit a minimum of 5 out of 10 EMG responses of >50 uV.
# Patients all received active-iTBS, consisting of a total of 600 pulses per session delivered in twenty trains of triplets at 50 Hz repeated at 5 Hz (2 s on 8 s off) at 80% rMT. Participants received daily treatments Monday through Friday for a total of 20 treatments.
# The primary outcome was change in depressive symptoms as measured by the Montgomery Asberg Depression Rating Scale (MADRS) at the conclusion of treatment. Secondary outcomes included clinical response (≥50% improvement in MADRS), clinical remission (MADRS≤10), and clinical global impression (CGI).
# [4] = system: MDD-related cognitive impairment; test: RCT of iTBS+DCS in MDD: cognition (PDQ, THINC-it N-Back); assay type: in vivo, human; settings: iTBS+DCS 100 mg vs iTBS+Placebo; listed as DCS
# Procedure: The efficacy of 100 mg DCS as an adjunctive strategy to iTBS to reduce MDD-related cognitive impairment and/or improve cognition in MDD was be tested in the randomized controlled trial described in the above Example.
# Participants completed the Cognitive Failures Questionnaire (CFQ31) and the Perceived Deficits Questionnaire (PDQ) as well as the THINC-it computerized neurocognitive battery at baseline and after treatment.
# [5] = system: neurite density at the iTBS target site; test: RCT of iTBS+DCS in MDD: NODDI diffusion MRI at iTBS target site; assay type: in vivo, human; settings: iTBS+DCS treated participants; not in iTBS+Placebo; listed as DCS
# From the text: Neurite Density and Dispersion Orientation Index (NODDI)^32 is an MRI tool that provides a proxy measure of neurite morphology and arborization that has been validated against histology in model species^33,34. While more commonly applied to white matter, NODDI has discriminating power in cortical gray matter in both health and disease^35-37. Neurite density metrics reflect the volume within neurites, whereas orientation dispersion metrics capture the tortuosity or complexity of neural processes, both of which are affected in MDD.
# In the randomized placebo-controlled trial discussed in the Example above, diffusion magnetic resonance data to quantify Neurite Density and Dispersion Orientation Index (NODDI)^32 were acquired using a 3T General Electric Discovery MR750 scanner at the Seaman Family MR Research Center. This method provides a proxy measure of histopathological features in brain white and gray matter to describe neurite morphology and arborization.
# [6] = system: suicidal ideation and suicide risk in MDD; test: RCT of iTBS+DCS in MDD: suicidal ideation and death-implicit association test; assay type: in vivo, human; settings: iTBS+DCS vs iTBS+Placebo, listed as DCS
# From the text: Participants also completed a computerized neuropsychological test called the death-implicit association test that is associated with suicide attempts, both retrospectively and prospectively.
# [7] = system: motor cortex (MEP facilitation after iTBS); settings: healthy participants, described elsewhere; cited from earlier work
# [8] = system: TMS-associated plasticity; settings: low dose; cited from earlier work
# tDCS plasticity = settings: compared with tDCS alone; cited from earlier work
smiles,measurement,setting,value
N[C@@H]1CONC1=O [D-cycloserine],facilitation of MEP peak to peak amplitude after repeated spaced iTBS,"[1]; 100 mg oral one hour before iTBS, two iTBS separated by an hour",not impacted
same,stimulus response curve change after iTBS,[1]; adjunctive 100 mg,significant and sustained facilitation
same,relationship between ΔAUC 90 min and ΔAUC NextDay of the SRC,"[2]; D-cycloserine groups, placebo groups weak negative relationship",positively correlated; also recorded: positive relationship
same,MEP time course following iTBS,"[2]; MDD participants n=12, 100 mg, vs placebo arm",did not impact
same,change in stimulus response curve the day following iTBS,"[2]; MDD participants, 100 mg, compared with healthy-placebo and MDD-placebo",normalized
same,OR of clinical response,"[3]; 2 weeks, iTBS+DCS vs iTBS+placebo, 95% CI: 1.41-21.03",5.45
same,rate of clinical remission (MADRS≤10),[3]; 2 weeks,17.4%
same,rate of clinical response (≥50% improvement in MADRS),"[3]; 2 weeks, iTBS+placebo 16.7%",52.2%
same,OR of clinical remission,"[3]; 4 weeks, iTBS+DCS vs iTBS+placebo, 95% CI: 1.68-129.52",14.78
same,OR of clinical response,"[3]; 4 weeks, iTBS+DCS vs iTBS+placebo, 95% CI: 1.91-24.77",6.88
same,rate of clinical remission (MADRS≤10),[3]; 4 weeks,39.1%
same,rate of clinical response (≥50% improvement in MADRS),"[3]; 4 weeks, iTBS+placebo 29.2%",73.9%
same,change in depressive symptoms (MADRS scores),"[3]; iTBS+DCS 100 mg vs iTBS+Placebo, mITT, 4 weeks, listed as DCS",significant improvement in depressive symptoms; also recorded: greater reductions in depressive symptoms
same,"MADRS mean difference, per treatment analyses","[3]; iTBS+DCS vs iTBS+Placebo, 2 weeks, 95% CI: 0.43-7.51",3.97
same,"MADRS mean difference, per treatment analyses","[3]; iTBS+DCS vs iTBS+Placebo, 4 weeks, 95% CI: 2.66-11.52",7.09
same,Hedge's g (MADRS change),"[3]; iTBS+DCS vs iTBS+Placebo, 95% CI: 0.34-1.62",0.99
same,CGI-Improvement scores,"[3]; iTBS+DCS vs iTBS+Placebo, at 2 weeks and 4 weeks, listed as DCS",greater improvements on the clinical global impression scale; also recorded: greater improvement
same,mean difference on the MADRS,"[3]; iTBS+DCS vs iTBS+Placebo, mITT, baseline to 4 weeks, 95% CI: 2.43-9.88, p=0.001",6.15
same,CGI-severity scale,"[3]; iTBS+DCS vs iTBS+Placebo, p=0.0014, listed as DCS",greater improvements in clinical global impression severity scores
same,visual analog scale for overall wellbeing,"[3]; iTBS+DCS vs iTBS+Placebo, p=0.018, listed as DCS",greater improvements in overall wellbeing; also recorded: greater improvement
same,self-reported anxiety symptoms (GAD-7),"[3]; iTBS+DCS vs iTBS+Placebo, p=0.035, listed as DCS",greater improvements in anxiety; also recorded: greater improvement
same,"objective cognitive function, N-Back task of working memory",[4],significantly greater improvements; also recorded: significant improvements
same,subjective cognitive function (Perceived Deficits Questionnaire),[4],significantly greater improvements; also recorded: significant improvements
same,neurite density at the target site (NODDI),[5],increased neurite density; also recorded: Neurite density increases
same,suicidal ideation,[6],rapid resolution of suicidal ideation; also recorded: greater reductions in suicidal ideation
same,death-implicit association test performance,[6]; persisted when controlling for depressive symptom improvement,showed improvement; also recorded: greater reductions in scores
same,facilitation of MEPs after iTBS,[7],blunted facilitation of MEPs
same,short-term facilitation with high-frequency rTMS,[8],increases short-term facilitation
same,duration of sustained plasticity with transcranial direct current stimulation,tDCS plasticity,more than 12 hours
